Measurements taken from patent publication US12263171B2, “7-, 8-, and 10-substituted amino triazolo quinazoline derivatives as adenosine receptor antagonists, pharmaceutical compositions and their use” (Merck Sharp & Dohme LLC, priority 2018, dated 2025).

What was measured:
[1] = target: human A2a adenosine receptor (Homo sapiens (Human), UniProt P29274); assay: A2a receptor affinity radioligand binding assay ([3H] SCH58261, membranes from HEK293 or CHO cells); conditions: unstarred values: radioligand binding
Procedure: The A2a receptor affinity binding assay measured the amount of binding of a tritiated ligand with high affinity for the A2a adenosine receptor to membranes made from HEK293 or CHO cells recombinantly expressing the human A2a adenosine receptor, in the presence of varying concentrations of a compound of the invention.
Measurement of A2a Binding Affinity Using Radioligand Binding
148 μL, (5 μg/mL) membranes (Perkin Elmer, Cat. No. RBHA2aM4001A) and 2 μL compounds of the invention to be tested (test compound) were transferred to individual wells of a 96-well polypropylene assay plate and incubated for 15 to 30 minutes at room temperature. [^3H] SCH58261 ((7-(2-phenylethyl)-5-amino-2-(2-furyl)-pyrazolo-[4,3-e]-1,2,4-triazolo[1,5-c]pyrimidine)) was diluted in assay buffer (50 mM Tris pH 7.4, 10 mM MgCl2, 0.005% Tween20) to a concentration of 4 nM and 50 μL transferred to each well of the assay plate. […] The assay plate was incubated at room temperature for 60 minutes with agitation. […] Filtering was achieved by aspirating the contents of the assay plate for 5 seconds, then washing and aspirating the contents three times with ice-cooled wash buffer (50 mM Tris-HCl pH 7.4, 150 mM NaCl) and allowing the vacuum manifold to dry the plate for 30 seconds. The filter plate was incubated for at least 1 hour at 55° C. and allowed to dry. The bottom of the filter plate was sealed with backing tape. 40 μL. […] The plate was incubated for at least 20 minutes, and then the amount of radioactivity remaining in each well was determined using a TopCown® (Perkin Elmer) scintillation counter. After normalization to total and non-specific binding, the percent effect at each compound concentration was calculated. The plot of percent effect versus the log of compound concentration was analyzed electronically using a 4-parameter logistic fit based on the Levenberg-Marquardt algorithm to generate IC50 values.

[2] = target: human A2b adenosine receptor (Homo sapiens (Human), UniProt P29275); assay: A2b radioligand filtration binding assay (tritiated proprietary A2b antagonist, HEK293 membranes); conditions: unstarred values: radioligand binding
Procedure: Measurement of A2b Binding Affinity
The reported affinity of the compounds of the invention for the human A2b adenosine receptor was determined experimentally using a radioligand filtration binding assay. This assay measures the amount of binding of a tritiated proprietary A2b receptor antagonist, in the presence and absence of a compound of the invention, to membranes made from HEK293 cells recombinantly expressing the human A2b adenosine receptor (Perkin Elmer, Cat. No. ES-013-C).
The filter plate was incubated for at least 1 hour at 55° C. and allowed to dry. The bottom of the filter plate was then sealed with backing tape. […] The plates were then incubated for at least 20 minutes, and then the amount of radioactivity remaining in each well was determined using a TopCount® (Perkin Elmer) scintillation counter. After normalization to total and non-specific binding, the percent effect at each compound concentration was calculated. The plot of percent effect versus the log of compound concentration was analyzed electronically using a 4-parameter logistic fit based on the Levenberg-Marquardt algorithm to generate IC50 values.

Sequence of human A2a adenosine receptor (P29274 whole entry): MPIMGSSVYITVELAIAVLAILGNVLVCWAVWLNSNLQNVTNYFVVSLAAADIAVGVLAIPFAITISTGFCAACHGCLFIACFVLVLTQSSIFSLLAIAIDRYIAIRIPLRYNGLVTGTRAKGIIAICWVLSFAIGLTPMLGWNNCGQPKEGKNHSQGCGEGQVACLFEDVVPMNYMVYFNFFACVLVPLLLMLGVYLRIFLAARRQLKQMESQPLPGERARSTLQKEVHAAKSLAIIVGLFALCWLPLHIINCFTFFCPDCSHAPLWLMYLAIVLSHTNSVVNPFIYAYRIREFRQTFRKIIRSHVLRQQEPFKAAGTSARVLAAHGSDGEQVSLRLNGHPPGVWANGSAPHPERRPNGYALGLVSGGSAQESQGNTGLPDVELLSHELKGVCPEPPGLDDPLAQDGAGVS
Sequence of human A2b adenosine receptor (P29275 whole entry): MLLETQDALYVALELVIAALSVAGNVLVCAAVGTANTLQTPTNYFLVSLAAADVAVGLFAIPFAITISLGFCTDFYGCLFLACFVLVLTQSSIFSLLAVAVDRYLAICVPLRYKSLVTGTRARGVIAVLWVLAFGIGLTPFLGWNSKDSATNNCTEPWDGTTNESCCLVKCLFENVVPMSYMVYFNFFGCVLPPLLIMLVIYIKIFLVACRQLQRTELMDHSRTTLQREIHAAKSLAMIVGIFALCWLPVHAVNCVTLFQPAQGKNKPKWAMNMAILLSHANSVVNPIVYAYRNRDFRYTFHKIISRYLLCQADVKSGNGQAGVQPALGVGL

Row | IC50 [1] [nM] | IC50 [2] [nM] | Compound
1 | 0.4 | 103 | COc1cccc2c1nc(N)n1nc([C@@H]3CCCN(c4cn(CC(C)(C)O)nc4C)C3)nc21 [Example 30, (R)-1-(4-(3-(5-amino-7-methoxy-[1,2,4]triazolo[1,5-c]quinazolin-2-yl)piperidin-1-yl)-3-methyl-1H-pyrazol-1-yl)-2-methylpropan-2-ol]
2 | 1.1 | 0.7 | COc1cccc2c1nc(N)n1nc([C@@H]3CCCN(c4cn(CC5(O)CCC5)nc4C)C3)nc21 [Example 32, (R)-1-((4-(3-(5-amino-7-methoxy-[1,2,4]triazolo[1,5-c]quinazolin-2-yl)piperidin-1-yl)-3-methyl-1H-pyrazol-1-yl)methyl)cyclobutan-1-ol]
3 | 0.1 | 320 | COc1cccc2c1nc(N)n1nc([C@@H]3CCCN(c4cnn(CC(C)(C)O)c4C)C3)nc21 [Example 33, (R)-1-(4-(3-(5-amino-7-methoxy-[1,2,4]triazolo[1,5-c]quinazolin-2-yl)piperidin-1-yl)-5-methyl-1H-pyrazol-1-yl)-2-methylpropan-2-ol]
4 | 0.7 | 41.9 | COc1cccc2c1nc(N)n1nc([C@@H]3CCCN(c4cnn([C@H]5C[C@@](C)(O)C5)c4)C3)nc21 [Example 35, (R)-3-(4-(3-(5-amino-7-methoxy-[1,2,4]triazolo[1,5-c]quinazolin-2-yl)piperidin-1-yl)-1H-pyrazol-1-yl)-1-methylcyclobutan-1-ol]
5 | 1.8 | 1.7 | CCNC(=O)C(C)(C)n1cc(N2CCC[C@@H](c3nc4c5cccc(OC)c5nc(N)n4n3)C2)cn1 [Example 36, (R)-2-(4-(3-(5-amino-7-methoxy-[1,2,4]triazolo[1,5-c]quinazolin-2-yl)piperidin-1-yl)-1H-pyrazol-1-yl)-N-ethyl-2-methylpropanamide]
6 | 1.5 | 10.7 | COc1cccc2c1nc(N)n1nc([C@@H]3CCCN(c4cnn(C(C)(C)C(=O)NC5CCC5)c4)C3)nc21 [Example 37, (R)-2-(4-(3-(5-amino-7-methoxy-[1,2,4]triazolo[1,5-c]quinazolin-2-yl)piperidin-1-yl)-1H-pyrazol-1-yl)-N-cyclobutyl-2-methylpropanamide]
7 | 4.1 | 1.4 | COc1cccc2c1nc(N)n1nc([C@@H]3CCCN(c4cnn(C(C)(C)C(=O)NC(C)C)c4)C3)nc21 [Example 38, (R)-2-(4-(3-(5-amino-7-methoxy-[1,2,4]triazolo[1,5-c]quinazolin-2-yl)piperidin-1-yl)-1H-pyrazol-1-yl)-N-isopropyl-2-methylpropanamide]
8 | 1.2 | 3.5 | COc1cccc2c1nc(N)n1nc([C@@H]3CCCN(c4cnn([C@@H]5CCCC[C@]5(C)O)c4)C3)nc21 [Example 42, (1S,2R)-2-(4-((R)-3-(5-amino-7-methoxy-[1,2,4]triazolo[1,5-c]quinazolin-2-yl)piperidin-1-yl)-1H-pyrazol-1-yl)-1-methylcyclohexan-1-ol]
9 | 0.5 | 1.9 | COc1cccc2c1nc(N)n1nc([C@@H]3CCCN(c4cnn([C@H]5CCCC[C@]5(C)O)c4)C3)nc21 [Example 43, (1S,2S)-2-(4-((R)-3-(5-amino-7-methoxy-[1,2,4]triazolo[1,5-c]quinazolin-2-yl)piperidin-1-yl)-1H-pyrazol-1-yl)-1-methylcyclohexan-1-ol]
10 | 1.2 | 132 | COc1cccc2c1nc(N)n1nc([C@@H]3CCCN(c4cnn(CC5(O)CCCCC5)c4)C3)nc21 [Example 44, (R)-1-((4-(3-(5-amino-7-methoxy-[1,2,4]triazolo[1,5-c]quinazolin-2-yl)piperidin-1-yl)-1H-pyrazol-1-yl)methyl)cyclohexan-1-ol]
11 | 2.6 | 350 | COc1cccc2c1nc(N)n1nc([C@@H]3CCCN(c4cnn([C@@H]5CCNC5)c4)C3)nc21 [Example 45, 7-methoxy-2-((R)-1-(1-((R)-pyrrolidin-3-yl)-1H-pyrazol-4-yl)piperidin-3-yl)-[1,2,4]triazolo[1,5-c]quinazolin-5-amine]
12 | 0.4 | 404 | COc1cccc2c1nc(N)n1nc([C@@H]3CCCN(c4cn(C5CCOCC5)nc4C)C3)nc21 [Example 46, (R)-7-methoxy-2-(1-(3-methyl-1-(tetrahydro-2H-pyran-4-yl)-1H-pyrazol-4-yl)piperidin-3-yl)-[1,2,4]triazolo[1,5-c]quinazolin-5-amine]
13 | 0.1 | 223 | COc1cccc2c1nc(N)n1nc([C@@H]3CCCN(c4cnn(C5CCOCC5)c4C)C3)nc21 [Example 47, (R)-7-methoxy-2-(1-(5-methyl-1-(tetrahydro-2H-pyran-4-yl)-1H-pyrazol-4-yl)piperidin-3-yl)-[1,2,4]triazolo[1,5-c]quinazolin-5-amine]
14 | 0.6 | 65.5 | COc1cccc2c1nc(N)n1nc([C@@H]3CCCN(c4cn(C5CCOCC5)nc4C(F)F)C3)nc21 [Example 48]
15 | 0.2 | 36 | COc1cccc2c1nc(N)n1nc([C@@H]3CCCN(c4cnn(C5CCOCC5)c4C(F)F)C3)nc21 [Example 49, (R)-2-(1-(5-(difluoromethyl)-1-(tetrahydro-2H-pyran-4-yl)-1H-pyrazol-4-yl)piperidin-3-yl)-7-methoxy-[1,2,4]triazolo[1,5-e]quinazolin-5-amine]
16 | 0.9 | 160 | COc1cccc2c1nc(N)n1nc([C@@H]3CCCN(c4cnn([C@H]5CCN(C)C5)c4)C3)nc21 [Example 50, 7-methoxy-2-((R)-1-(1-((S)-1-methylpyrrolidin-3-yl)-1H-pyrazol-4-yl)piperidin-3-yl)-[1,2,4]triazolo[1,5-c]quinazolin-5-amine]
17 | 0.1 | 85.9 | COc1cccc2c1nc(N)n1nc([C@@H]3CCCN(c4cn(C)nc4C(F)(F)F)C3)nc21 [Example 51, (R)-7-methoxy-2-(1-(1-methyl-3-(trifluoromethyl)-1H-pyrazol-4-yl)piperidin-3-yl)-[1,2,4]triazolo[1,5-c]quinazolin-5-amine]
18 | 0.4 | 350 | COc1cccc2c1nc(N)n1nc([C@@H]3CCCN(c4cn(CC(C)(C)O)nc4C(F)(F)F)C3)nc21 [Example 52, (R)-1-(4-(3-(5-amino-7-methoxy-[1,2,4]triazolo[1,5-c]quinazolin-2-yl)piperidin-1-yl)-3-(trifluoromethyl)-1H-pyrazol-1-yl)-2-methylpropan-2-ol]
19 | 0.7 | 151 | COc1cccc2c1nc(N)n1nc([C@@H]3CCCN(c4cn(CC(C)(C)O)nc4C(F)F)C3)nc21 [Example 53, (R)-1-(4-(3-(5-amino-7-methoxy-[1,2,4]triazolo[1,5-c]quinazolin-2-yl)piperidin-1-yl)-3-(difluoromethyl)-1H-pyrazol-1-yl)-2-methylpropan-2-ol]
20 | 0.4 | 16.3 | COc1cccc2c1nc(N)n1nc([C@@H]3CCCN(c4cnn(C(C)(C)CO)c4)C3)nc21 [Example 54, (R)-2-(4-(3-(5-amino-7-methoxy-[1,2,4]triazolo[1,5-c]quinazolin-2-yl)piperidin-1-yl)-1H-pyrazol-1-yl)-2-methylpropan-1-ol]
21 | 1.5 | 4.7 | COc1cccc2c1nc(N)n1nc([C@@H]3CCCN(c4cn[nH]c4)C3)nc21 [Example 55]
